ChEMBL document CHEMBL4619763 (J Nat Prod, 2020)
Activity calls are given as the source filed them. The rule behind the calls is not given here.

Assays:
Rattus norvegicus [1] = assay: Diuretic activity in normotensive Wistar rat assessed as urine pH at 0.01 mg/kg, po administered via gavage after 8 hrs (reference value: 6.14 to 6.21); type: functional
Rattus norvegicus [2] = assay: Diuretic activity in normotensive Wistar rat assessed as urinary sodium excretion at 0.01 mg/kg, po administered via gavage after 8 hrs (reference value: 61.82 to 80.81 mmol/L); type: functional
[3] = Toxicity in normotensive Wistar rat assessed as changes in plasma potassium level at 0.1 mg/kg, po administered for 7 days; type: organism-based; details: in vivo, 168 h
Rattus norvegicus [4] = assay: Diuretic activity in normotensive Wistar rat assessed as urinary sodium excretion at 1 mg/kg, po administered via gavage after 8 hrs (reference value: 61.82 to 80.81 mmol/L); type: functional
Rattus norvegicus [5] = assay: Diuretic activity in normotensive Wistar rat assessed as urinary calcium excretion at 0.1 mg/kg, po administered via gavage after 8 hrs in presence of L-NAME (reference value: 5.93 to 6.87 mg/dl); type: functional
Rattus norvegicus [6] = assay: Diuretic activity in normotensive Wistar rat assessed as urinary chloride excretion at 0.1 mg/kg, po administered via gavage after 8 hrs (reference value: 135.10 to 143.70 mmol/L); type: functional
Rattus norvegicus [7] = assay: Diuretic activity in normotensive Wistar rat assessed as urinary sodium excretion at 0.1 mg/kg, po administered via gavage after 8 hrs (reference value: 61.82 to 80.81 mmol/L); type: functional
Rattus norvegicus [8] = assay: Diuretic activity in normotensive Wistar rat assessed as urinary chloride excretion at 0.01 mg/kg, po administered via gavage after 8 hrs (reference value: 135.10 to 143.70 mmol/L); type: functional
[9] = Toxicity in spontaneous hypertensive Wistar rat assessed as changes in plasma sodium level at 0.1 mg/kg, po administered for 7 days; type: organism-based; details: in vivo, 168 h
Rattus norvegicus [10] = assay: Diuretic activity in normotensive Wistar rat assessed as increase in urine volume excretion at 0.1 to 1 mg/kg, po administered via gavage after 1 hr; type: functional, organism-based
Rattus norvegicus [11] = assay: Diuretic activity in normotensive Wistar rat assessed as urinary chloride excretion at 1 mg/kg, ip […] after 8 hrs (reference value: 103.30 +/- 10.25 mmol/L); type: functional
Rattus norvegicus [12] = assay: Diuretic activity in normotensive Wistar rat assessed as increase in urine volume at 0.1 mg/kg, po administered via gavage for 7 days; type: functional, organism-based
Rattus norvegicus [13] = assay: Diuretic activity in spontaneous hypertensive Wistar rat assessed as increase in urinary chloride excretion at 0.1 mg/kg, po administered via gavage for 7 days; type: functional, organism-based
Rattus norvegicus [14] = assay: Diuretic activity in normotensive Wistar rat assessed as urinary potassium excretion at 1 mg/kg, ip […] after 8 hrs (reference value: 22.33 +/- 2.81 mmol/L); type: ADME, organism-based; details: in vivo
Rattus norvegicus [15] = assay: Diuretic activity in normotensive Wistar rat assessed as urinary potassium excretion at 0.1 mg/kg, po administered via gavage after 8 hrs in presence of atropine (reference value: 22.39 to 24.21 mmol/L); type: ADME, organism-based; details: in vivo
Rattus norvegicus [16] = assay: Diuretic activity in normotensive Wistar rat assessed as urine pH at 0.1 mg/kg, po administered via gavage after 8 hrs in presence of L-NAME (reference value: 6.14 to 6.21); type: functional
Rattus norvegicus [17] = assay: Diuretic activity in normotensive Wistar rat assessed as urinary chloride excretion at 0.1 mg/kg, po administered via gavage after 8 hrs in presence of atropine (reference value: 135.10 to 143.70 mmol/L); type: functional
Rattus norvegicus [18] = assay: Renal protective activity in spontaneous hypertensive Wistar rat assessed as reduction in hypertension-induced mesangial space disarrangement at 0.1 mg/kg, po administered via gavage for 7 days by hematoxylin and eosin staining based microscopic analysis; type: functional, organism-based
Rattus norvegicus [19] = assay: Anti-urolithic activity in spontaneous hypertensive Wistar rats assessed as reduction in CaOx crystal formation in cumulative urine at 0.1 mg/kg, po administered via gavage in presence of sodium oxalate by Neubauer counting chamber method relative to control; type: functional; set-up: scale not given: the % may be the effect or the level left
Rattus norvegicus [20] = assay: Diuretic activity in normotensive Wistar rat assessed as urine conductivity at 0.1 mg/kg, po administered via gavage after 8 hrs in presence of furosemide (reference value: 19.54 +/- 0.98 mS/cm); type: functional
Rattus norvegicus [21] = assay: Diuretic activity in normotensive Wistar rat assessed as urinary sodium excretion at 0.1 mg/kg, ip after 8 hrs (reference value: 81.56 +/- 13.10 mmol/L); type: functional
Rattus norvegicus [22] = assay: Diuretic activity in normotensive Wistar rat assessed as urine pH at 0.1 mg/kg, po administered via gavage after 8 hrs in presence of amiloride (reference value: 6.14 to 6.21); type: functional
Rattus norvegicus [23] = assay: In vivo antioxidant activity in Wistar rat model of hypertension-induced oxidative stress assessed as reduction in reactive oxygen species generation in renal tissue at 0.1 mg/kg, po administered via gavage for 7 days by DCFH-DA probe based fluorimetric assay; type: functional, organism-based
Rattus norvegicus [24] = assay: Diuretic activity in normotensive Wistar rat assessed as urine conductivity at 0.1 mg/kg, po administered via gavage after 8 hrs in presence of hydrochlorothiazide (reference value: 19.54 +/- 0.98 mS/cm); type: functional
Rattus norvegicus [25] = assay: Diuretic activity in normotensive Wistar rat assessed as urinary calcium excretion at 0.1 mg/kg, po administered via gavage after 8 hrs in presence of indomethacin (reference value: 5.93 to 6.87 mg/dl); type: functional
Rattus norvegicus [26] = assay: Diuretic activity in spontaneous hypertensive Wistar rat assessed as effect on urinary potassium excretion at 0.1 mg/kg, po administered via gavage for 7 days; type: ADME, organism-based; details: in vivo, 168 h
Rattus norvegicus [27] = assay: Diuretic activity in normotensive Wistar rat assessed as urinary calcium excretion at 0.01 mg/kg, po administered via gavage after 8 hrs (reference value: 5.93 to 6.87 mg/dl); type: functional
Rattus norvegicus [28] = assay: Diuretic activity in spontaneous hypertensive Wistar rat assessed as increase in urine volume at 0.1 mg/kg, po administered via gavage for 7 days; type: functional, organism-based
Rattus norvegicus [29] = assay: Diuretic activity in normotensive Wistar rat assessed as urinary chloride excretion at 0.1 mg/kg, ip […] after 8 hrs (reference value: 103.30 +/- 10.25 mmol/L); type: functional
[30] = Anti-urolithic activity in synthetic urine assessed as decrease in absorption at 0.1 mg/mL relative to control; type: functional; set-up: scale not given: the % may be the effect or the level left
[31] = Antioxidant activity assessed as DPPH radical scavenging activity at 100 to 1000 ug/ml after 5 mins; type: functional
Rattus norvegicus [32] = assay: Diuretic activity in normotensive Wistar rat assessed as urine conductivity at 0.01 mg/kg, po administered via gavage after 8 hrs (reference value: 19.54 +/- 0.98 mS/cm); type: functional
Rattus norvegicus [33] = assay: Diuretic activity in normotensive Wistar rat assessed as urinary sodium excretion at 0.1 mg/kg, po administered via gavage after 8 hrs in presence of furosemide (reference value: 61.82 to 80.81 mmol/L); type: functional
[34] = Toxicity in spontaneous hypertensive Wistar rat assessed as changes in plasma ALT level at 0.1 mg/kg, po administered for 7 days; type: organism-based; details: in vivo, 168 h
Rattus norvegicus [35] = assay: Diuretic activity in normotensive Wistar rat assessed as urinary potassium excretion at 0.01 mg/kg, po administered via gavage after 8 hrs (reference value: 22.39 to 24.21 mmol/L); type: ADME, organism-based; details: in vivo
Rattus norvegicus [36] = assay: Diuretic activity in normotensive Wistar rat assessed as urine pH at 1 mg/kg, ip after 8 hrs (reference value: 6.05 +/- 0.22); type: functional

In the case of C[C@@H]1O[C@@H](Oc2c(-c3ccc(O)cc3)oc3cc(O)cc(O)c3c2=O)[C@H](O)[C@H](O)[C@H]1O [AFZELIN], the pH (Rattus norvegicus [1]) is reported as 5.73, the Activity (Rattus norvegicus [2]) is reported as 61.35 mmol/L and the Activity [3] is reported as “Non-Toxic”. It also gave an Activity (Rattus norvegicus [4]) of 74.67 mmol/L, an Activity (Rattus norvegicus [5]) of 4.82 mg/dL and an Activity (Rattus norvegicus [6]) of 186.6 to 231.3 mmol/L. For the same molecule, the Activity (Rattus norvegicus [7]) was 53.09 to 56.99 mmol/L, the Activity (Rattus norvegicus [8]) was 113.3 mmol/L and the Activity [9] was “Non-Toxic”. The Activity (Rattus norvegicus [10]) was “Active”, the Activity (Rattus norvegicus [11]) was 107.4 mmol/L and the Activity (Rattus norvegicus [12]) was “Active”. For the same molecule, the Activity (Rattus norvegicus [13]) was “Active”, the Activity (Rattus norvegicus [14]) was 14.41 mmol/L and the Activity (Rattus norvegicus [15]) was 16.83 mmol/L. For the same molecule, the pH (Rattus norvegicus [16]) was 6.43, the Activity (Rattus norvegicus [17]) was 231.8 mmol/L and the Activity (Rattus norvegicus [18]) was “Active”. It also gave an Activity (Rattus norvegicus [19]) of 92.53%, an Activity (Rattus norvegicus [20]) of 20.62 mS/cm and an Activity (Rattus norvegicus [21]) of 40.93 mmol/L. For the same molecule, the pH (Rattus norvegicus [22]) was 6.26, the Activity (Rattus norvegicus [23]) was “Active” and the Activity (Rattus norvegicus [24]) was 19.83 mS/cm. For the same molecule, the Activity (Rattus norvegicus [25]) was 4.82 mg/dL, the Activity (Rattus norvegicus [26]) was “Non-Toxic” and the Activity (Rattus norvegicus [27]) was 5.23 mg/dL. The Activity (Rattus norvegicus [28]) was “Active”, the Activity (Rattus norvegicus [29]) was 78.12 mmol/L and the Activity [30] was 27.81%. For the same molecule, the Activity [31] was “Active”, the Activity (Rattus norvegicus [32]) was 22.17 mS/cm and the Activity (Rattus norvegicus [33]) was 75.54 mmol/L. The Activity [34] was “Non-Toxic”, the Activity (Rattus norvegicus [35]) was 17.98 mmol/L and the pH (Rattus norvegicus [36]) was 5.91.
